From ChEMBL document CHEMBL1201862, “PubChem BioAssay data set” (2004)
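Results reflect a 48-hour exposure of cells in 96-well plates to compound at five concentrations. The concentration for 50% growth inhibition is given as GI50.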 Calls of active or inactive are those of the source. Cut-off read from the data, not from the text of the source: active = GI50 up to about 1.1 µM and inactive = higher.

Tests used:
Assay in all cases: inhibition of tumour cell growth, NCI panel, 48 h
PC-3 = test system: PC-3
MCF7 = test system: MCF7
Hs-578T = test system: Hs-578T
BT-549 = test system: BT-549
M19-MEL = test system: M19-MEL
DLD-1 = test system: DLD-1
LXFL 529 = test system: LXFL 529
DMS-114 = test system: DMS-114

Row | SMILES | GI50 (PC-3) | GI50 (MCF7) | GI50 (Hs-578T) | GI50 (BT-549) | GI50 (M19-MEL) | GI50 (DLD-1) | GI50 (LXFL 529) | GI50 (DMS-114)
1 | Nc1nc(O)c(N)c(NCCOCP(=O)(O)O)n1 | > 100 µM (inactive) | > 100 µM (inactive) | > 100 µM (inactive) | > 74.8 µM (inactive) | – | – | – | –
2 | Nc1ccn(C2CCC(CO)O2)c(=S)n1 (stereo unspecified) | > 100 µM (inactive) | > 100 µM (inactive) | > 100 µM (inactive) | > 100 µM (inactive) | – | – | – | –
3 | CC1(C)COC(c2ccc(C(=O)c3ccc(Cl)cc3)cc2)=N1 | > 100 µM (inactive) | 86.5 µM (inactive) | > 100 µM (inactive) | – | – | – | – | –
4 | NS(=O)(=O)c1ccc(NC(=O)Nc2cccc3ccccc23)cc1 | 20.2 µM (inactive) | 31.2 µM (inactive) | 42.2 µM (inactive) | 87.1 µM (inactive) | – | – | – | –
5 | O=C(O)c1nnsc1-c1csnn1 | > 100 µM (inactive) | > 100 µM (inactive) | > 100 µM (inactive) | > 100 µM (inactive) | – | – | – | –
6 | COc1cccc2c3cccc(OC)c3c3[nH]cnc3c12 | 2.03 µM (inactive) | 1.58 µM (inactive) | 0.394 µM (active) | 16.1 µM (inactive) | – | – | – | –
7 | N#CC(c1ccccc1)(c1ccccc1)[C@@H](c1ccccc1)[C@H](Cc1ccccc1)NS(=O)(=O)c1ccccc1 | 46.7 µM (inactive) | > 100 µM (inactive) | > 100 µM (inactive) | > 100 µM (inactive) | – | – | – | –
8 | Cc1cccc2c(=O)c3c(O)cc4c(c3n(C)c12)C=CC(C)(C)O4 | 91.8 µM (inactive) | 32.7 µM (inactive) | 39.4 µM (inactive) | 23.1 µM (inactive) | – | – | – | –
9 | c1ccc2c3nnc(c2c1)SCCCSc1nnc(c2ccccc12)SCCCS3 | 97.7 µM (inactive) | > 100 µM (inactive) | – | – | – | – | – | –
10 | C=C1[C@H](OCC(C)C)[C@@H](OC(=O)C(C)CC)[C@@H](O)C(C)(C)/C=C/[C@H](C)C(=O)[C@@]2(O)C[C@H](C)[C@H](O)[C@@H]2[C@H]1OC(=O)C(C)CC (stereo partly specified) | 2.82 µM (inactive) | 5.92 µM (inactive) | 1.66 µM (inactive) | 4.63 µM (inactive) | – | – | – | –
11 | N[C@H]1CCCC[C@@H]1N1C(=O)c2ccccc2C1(O)c1ccc(Cl)cc1 (stereo partly specified) | 11.4 µM (inactive) | 12.3 µM (inactive) | 17 µM (inactive) | 15 µM (inactive) | – | – | – | –
12 | O=C1C(Cl)=C(N[C@@H](Cc2ccccc2)C(=O)OCc2ccccc2)C(=O)c2c(O)ccc(O)c21 | 3.72 µM (inactive) | – | 4.89 µM (inactive) | > 10 µM (inactive) | – | – | – | –
13 | C[C@H]1C(=O)C2=C[C@H]1CCC(=O)[C@]1(C)CCCC(C)(C)[C@H]1C[C@H]2O | 33.3 µM (inactive) | 13.7 µM (inactive) | 19 µM (inactive) | 28.2 µM (inactive) | – | – | – | –
14 | CN(Cc1ccccc1)/C(=N\C#N)N(Cc1ccccc1)Cc1ccccc1 | 14.8 µM (inactive) | 22.3 µM (inactive) | 34.8 µM (inactive) | 19.3 µM (inactive) | 22.8 µM (inactive) | 21 µM (inactive) | 21.9 µM (inactive) | –
15 | COC(=O)C(C(=O)OC)C1CCCC(=O)C1 (stereo unspecified) | – | – | – | – | > 100 µM (inactive) | > 100 µM (inactive) | > 100 µM (inactive) | –
16 | C=CCC1(OCc2ccccc2)C(=O)C(=O)OC1C1COC(C)(C)O1 (stereo unspecified) | > 100 µM (inactive) | > 100 µM (inactive) | > 100 µM (inactive) | > 100 µM (inactive) | – | – | – | –
17 | Cc1c(C)n(-c2ccccc2)c2nc([S+](C)[O-])nc([S+](C)[O-])c12 (stereo unspecified) | 7 µM (inactive) | 2.16 µM (inactive) | 25.5 µM (inactive) | 0.755 µM (active) | – | – | – | –
18 | Cc1cc(=O)n2c(cc3cccccc32)n1 | – | – | – | – | – | – | > 100 µM (inactive) | –
19 | COc1cc2c(cc1OCCCCCOc1cc3c(cc1OC)C(=O)N1CCC[C@H]1CN3)N=C[C@@H]1CCCN1C2=O | 10.1 µM (inactive) | 15.8 µM (inactive) | 6.75 µM (inactive) | 2.66 µM (inactive) | – | – | – | –
20 | Cc1cn(CC2=NCCCN2)c(=O)[nH]c1=O | > 100 µM (inactive) | > 100 µM (inactive) | > 100 µM (inactive) | > 100 µM (inactive) | – | – | – | –
21 | COC1C(O)C(O[C@H]2CC[C@@]3(C)C(CC[C@@H]4[C@@H]3CC[C@]3(C)[C@@H](C(C)OC5OC(CO)C(O)C(O)C5O)CC[C@]43O)C2)OC(C)C1OC1OC(CO)C(O)C(O)C1O (stereo partly specified) | > 100 µM (inactive) | > 100 µM (inactive) | > 100 µM (inactive) | > 100 µM (inactive) | – | – | – | –
22 | COc1cc(OC)c(C/C=C/c2ccccc2)cc1O | 17.1 µM (inactive) | – | 16.8 µM (inactive) | 16.1 µM (inactive) | – | – | – | –
23 | N[C@@H](Cc1ccccc1)C(=O)N1CCC[C@@H]1P(=O)(Oc1ccccc1)Oc1ccccc1 | 33.6 µM (inactive) | > 100 µM (inactive) | > 100 µM (inactive) | > 100 µM (inactive) | – | – | – | –
24 | CC1(C)[C@H]2CC[C@@]13C(=O)N1C(=O)O[C@@H]([C@H]1Cl)C(Cl)(COCc1ccccc1)C(=O)OCCO[C@H]3C2 (stereo partly specified) | 38.2 µM (inactive) | 44.2 µM (inactive) | 88.1 µM (inactive) | 61.2 µM (inactive) | – | – | – | –
25 | O=C1CSC2(CC(/C=C/c3cccs3)=NN2c2cccc(S(=O)(=O)O)c2)N1c1nc2ccccc2s1 (stereo unspecified) | > 100 µM (inactive) | 54.1 µM (inactive) | > 100 µM (inactive) | 11.9 µM (inactive) | – | – | – | –
26 | COc1ccc(OC)c2c1ccc1c(C)c3ccccc3c(C)c12 | > 100 µM (inactive) | 20.9 µM (inactive) | – | > 100 µM (inactive) | – | – | – | –
27 | Nc1ncn2c(n1)nc1ccccc12 | > 100 µM (inactive) | > 100 µM (inactive) | > 100 µM (inactive) | > 100 µM (inactive) | – | – | – | –

Row | SMILES | GI50 (PC-3) | GI50 (MCF7) | GI50 (Hs-578T) | GI50 (BT-549) | GI50 (M19-MEL) | GI50 (DLD-1) | GI50 (LXFL 529) | GI50 (DMS-114)
28 | O=C(NCCCN1CCN(CCCNC(=O)Nc2cc(Cl)ccc2Cl)CC1)Nc1cc(Cl)ccc1Cl | – | – | – | – | – | > 100 µM (inactive) | 51.2 µM (inactive) | 38.5 µM (inactive)
29 | CCOC(=O)c1ccc(NC(=O)SCCC(=O)O)cc1 | – | – | – | – | – | > 100 µM (inactive) | 69 µM (inactive) | > 100 µM (inactive)
30 | CC1(C)C(O)c2ccccc2OC1N1CCN(C2Oc3ccccc3C(O)C2(C)C)CC1 (stereo unspecified) | > 100 µM (inactive) | > 100 µM (inactive) | > 100 µM (inactive) | – | – | – | – | –
31 | CC(C)(C)OC(=O)NC1CCCC1C(=O)C1=CCCC1 (stereo unspecified) | > 100 µM (inactive) | – | 44 µM (inactive) | > 100 µM (inactive) | – | – | – | –
32 | CCOC(=O)/C(=C\NC[C@@H](C)O)c1nc2ccccc2[nH]1 | – | 60.8 µM (inactive) | – | > 100 µM (inactive) | – | – | – | –
33 | Cc1nnc2c3c(-c4ccccc4)c(-c4ccccc4)oc3nc(N(C)C)n12 | – | 33.3 µM (inactive) | 21.3 µM (inactive) | – | – | – | – | –
34 | CC(N)C(C)c1ccccc1 (stereo unspecified) | – | – | – | – | – | > 100 µM (inactive) | > 100 µM (inactive) | > 100 µM (inactive)
35 | CCOP(=O)(OCC)C(Nc1ccc(Br)cc1)c1cccc([N+](=O)[O-])c1 (stereo unspecified) | – | – | 21.3 µM (inactive) | – | – | – | – | –
36 | CN(C)/N=N/c1nc2c(c(=O)n(C)c(=O)n2C)n1CC(O)CO (stereo unspecified) | > 100 µM (inactive) | 10.6 µM (inactive) | > 100 µM (inactive) | > 100 µM (inactive) | – | – | – | –
37 | CCOC(=O)c1sc2ncnc(N)c2c1C | 68.5 µM (inactive) | 51.6 µM (inactive) | 44.1 µM (inactive) | > 100 µM (inactive) | – | – | – | –
38 | COc1ccc(-n2nnc3c(C#N)c(C)c(-c4ccccc4)n3c2=O)cc1 | 1.82 µM (inactive) | 3.8 µM (inactive) | 4.58 µM (inactive) | 5.92 µM (inactive) | – | – | – | –
39 | CCOC(=O)CSC1NC(C(=O)OC)CC1OC (stereo unspecified) | > 100 µM (inactive) | > 100 µM (inactive) | > 100 µM (inactive) | > 100 µM (inactive) | – | – | – | –
40 | CNc1ncc(-c2nnnn2-c2ccccc2)c(CN(C)C)n1 | > 100 µM (inactive) | > 100 µM (inactive) | > 100 µM (inactive) | > 100 µM (inactive) | – | – | – | –
41 | COc1ccc(-c2cc(-c3ccc(Nc4ccnc5cc(C(F)(F)F)ccc45)cc3)[nH]c(=O)c2C#N)cc1 | > 100 µM (inactive) | > 88.7 µM (inactive) | 10.1 µM (inactive) | > 52 µM (inactive) | – | – | – | –
42 | COc1ccc(-c2cc(-c3ccc(O)cc3O)c(C#N)c(=O)[nH]2)cc1 | 14.4 µM (inactive) | 27 µM (inactive) | 18.5 µM (inactive) | 23.6 µM (inactive) | – | – | – | –
43 | Cc1cc(C)nc(SC(C)C(=O)N/N=C/c2ccc(OCc3ccccc3)cc2)n1 (stereo unspecified) | 22.4 µM (inactive) | 21 µM (inactive) | 52 µM (inactive) | 26.5 µM (inactive) | – | – | – | –
44 | Nc1c(-c2nc3ccccc3s2)c2ccc([N+](=O)[O-])cc2c(=O)n1-c1cccc(C(=O)O)c1 | 29.9 µM (inactive) | – | 27.5 µM (inactive) | 20.1 µM (inactive) | – | – | – | –
45 | O=[N+]([O-])c1ccc(C(c2c[nH]c3ccccc23)c2c[nH]c3ccccc23)cc1 | 12.3 µM (inactive) | 2.24 µM (inactive) | 19 µM (inactive) | 4.97 µM (inactive) | – | – | – | –
46 | Cc1ccc(S(=O)(=O)NNC(=O)Nc2ccc([N+](=O)[O-])cc2)cc1 | 26.1 µM (inactive) | 35.6 µM (inactive) | 34.6 µM (inactive) | 78.9 µM (inactive) | – | – | – | –
47 | CCOP(=O)(OCC)/C(C#N)=C/c1ccc(-c2cc(C(F)(F)F)cc(C(F)(F)F)c2)o1 | 11.7 µM (inactive) | 6.3 µM (inactive) | 25.1 µM (inactive) | 25.7 µM (inactive) | – | – | – | –
48 | COC(=O)[C@H](Cc1c[nH]c2ccccc12)NC(=O)c1ccc(CNC(=O)/C(C)=C/c2ccccc2)cc1 | 20.7 µM (inactive) | 29.2 µM (inactive) | – | 28.1 µM (inactive) | – | – | – | –
49 | N#C[BH2-][n+]1ccc(C(=O)NNCc2cccc(C(F)(F)F)c2)cc1 | 13.8 µM (inactive) | 5.64 µM (inactive) | 4.59 µM (inactive) | 14.3 µM (inactive) | – | – | – | –
50 | CCCNC1=C2CC(C)CC(OC)[C@@H](O)[C@H](C)/C=C(\C)C(OC(N)=O)C(OC)/C=C\C=C(/C)C(=O)NC(=CC1=O)C2=O (stereo partly specified) | 0.411 µM (active) | 0.124 µM (active) | 3.03 µM (inactive) | 12.3 µM (inactive) | – | – | – | –
51 | Cc1cc2c(cc1O)CC[C@@H]1[C@@H]2CC[C@]2(C)[C@@H](O)CC[C@@H]12 | 11.1 µM (inactive) | 8.85 µM (inactive) | 2.51 µM (inactive) | 6.27 µM (inactive) | – | – | – | –
52 | O=C(Cn1ccnc1[N+](=O)[O-])NCCO [ETANIDAZOLE] | > 100 µM (inactive) | > 100 µM (inactive) | > 100 µM (inactive) | > 100 µM (inactive) | – | – | – | –
53 | Clc1ccc(COC(Cn2ccnc2)c2ccc(Cl)cc2Cl)c(Cl)c1 (stereo unspecified) [MICONAZOLE] | 7.08 µM (inactive) | 10.9 µM (inactive) | 13.4 µM (inactive) | 15 µM (inactive) | – | – | – | –
